20 molecules from patent publication US6608058B2, “6-methylnicotinamide derivatives as antiviral agents” (Dong Wha Pharm. Ind. Co., Ltd., priority 2000, dated 2003) can be followed below.

One test relates to HBV polymerase. The test is described as follows: Inhibitory effect on the in vitro activities of HBV polymerase in reverse transcription (ELISA-type). It counts as biochemical. The text has this: The present inventors submitted application for a patent concerning HBV polymerase genetically expressed in and separated from E. coli, the process of its preparation, and the method to measure the enzyme activities (KR 94-3918, KR 96-33998). In the present experiments HBV polymerase was used which had been expressed in E. coli as stated above.
The method used in the present invention to measure in vitro reverse transcribing activities of HBV polymerase is as follows. Basic principles are the same as those for ELISA, nucleotides with biotin- or digoxigenin- group are included as substrates and anti-DIG antibodies attached to peroxidase enzyme recognize the polymerized substrates.
To the wells coated with streptavidin, 20 μl of HBV polymerase, 20 μl of reaction mixture (10 μM each of DIG-UTP and Biotin-UTP, 46 mM Tris-HCl, 266 mM KCl, 27.5 mM MgCl2, 9.2 mM DTT substrate/primer hybrid), and 20 μl of test compound (added to […]) were added and allowed to react at 22° C. for 15 hrs. During this reaction, HBV polymerase catalyzes DNA synthesis, and digoxigenin and biotin attached to nucleotides form bonds to streptavidin coated on the bottom of wells. When the reaction was done, each well was washed with 250 μl of cleaning buffer (pH 7.0) for 30 seconds, which was repeated five times to remove remaining impurities. 200 μl of anti-DIG-POD antibody was added to each well and allowed to react for 1 hr at 37° C., and the wells were washed with cleaning buffer to remove impurities. 200 μl each of ABTS™, a substrate of peroxidase, was then added and allowed to react at room temperature for 30 min. Absorbancy was measured at 405 nm using ELISA reader.
The inhibitory effects in HBV polymerase activities for reverse transcription were calculated using the group without test compound as a control and the results are shown in Table 1 as follows.
A general note: An ELISA detects its analyte on a solid surface through an enzyme-linked reagent.

The target of test [1] is T1, HIV reverse transcriptase (Human immunodeficiency virus type 1 group M subtype B, UniProt P04585).
T1 construct: purchased Boehringer Mannheim
The test is described as follows: Inhibitory effect on the in vitro HIV reverse transcriptase activity (non-radioactive RT assay kit). The format is biochemical. To be noted: for inhibition at 0.1 µg/mL: 0.1 μg/ml; for inhibition at 1 µg/mL: 1 μg/ml. How it is done:
Non-radioactive reverse transcriptase assay kit (Boehringer Mannheim) was used in the measurement of in vitro transcriptase activities. 20 μl (40 ng) of HIV reverse transcriptase and 20 μl of reaction mixture containing matrix-primer hybrid poly(A)oligo(dT)15, DIG(digoxigenin)-dUTP, biotin-dUTP, dTTP were added to wells coated with streptavidin, and the test compounds prepared were also added at the final concentrations of 0.1 and 1 μ/ml and allowed to react at 37° C. for 1 hr. At this time, DNA is formed from RNA by the action of HIV reverse transcriptase, forming bonds with streptavidin coated on the bottom of wells through digoxigenin and biotin moieties attached to nucleotides.
When the reaction was completed, each well was washed with 250 μl of washing buffer (pH 7.0) for 30 sec. five times to remove remaining impurities. 200 μl of anti-DIG-POD […] was added to each well, then the mixture was allowed to react at 37° C. for 1 hr and washed as above to remove impurities. 200 μl of ABTS™, a substrate for peroxidase, was added to each well and the mixture was allowed to react at room temperature for 30 min. Absorbance at 405 nm was measured for each solution using ELISA reader to determine the inhibitory effect on the HIV reverse transcriptase activities. The percentage of inhibition in the activity of HIV reverse transcriptase was calculated using the group without test compound as control and the results are represented in Table 3.

With `Cc1ccc(C(=O)NC(C)C)c(Nc2ccc3[nH]ncc3c2)n1` [Example 1, 2-(1H-5-indazolylamino)-N-isopropyl-6-methylnicotinamide], the figures for the “Inhibitory activity on HBV-RT (%)” value with HBV polymerase (0.01 μg/ml), with HBV polymerase (0.1 μg/ml) and in the test on HBV polymerase (1 μg/ml) were 30%, 49% and 78%, respectively. The inhibition at 0.1 µg/mL in test [1] was 42%. In addition, the inhibition at 1 µg/mL in test [1] amounted to 75%.
Turning to `Cc1ccc(C(=O)NN2CCOCC2)c(Nc2ccc3[nH]ncc3c2)n1` [Example 2, 2-(1H-5-indazolylamino)-6-methyl-N-(4-morpholinyl)nicotinamide], the “Inhibitory activity on HBV-RT (%)” value in the test on HBV polymerase (0.01 μg/ml) was found to be 42%; in the test on HBV polymerase (0.1 μg/ml) it was 57%; with HBV polymerase (1 μg/ml), 88%. For the same molecule, the inhibition at 0.1 µg/mL in test [1] stood at 49%. The inhibition at 1 µg/mL in test [1] amounted to 84%.
Turning to `Cc1ccc(C(=O)N[C@H]2CC[C@H](O)CC2)c(Nc2ccc3[nH]ncc3c2)n1` [Example 3, N-(Trans-4-hydroxy-1-cyclohexyl)-2-(1H-5-indazolylamino)-6-methylnicotinamide], the “Inhibitory activity on HBV-RT (%)” value in the test with HBV polymerase (0.01 μg/ml) is listed as 53%; in the test on HBV polymerase (0.1 μg/ml), 61%; with HBV polymerase (1 μg/ml), 80%. Besides, the inhibition at 0.1 µg/mL in test [1] is 51%. Further, the inhibition at 1 µg/mL in test [1] worked out at 80%.
On to `Cc1ccc(C(=O)Nc2cccnc2)c(Nc2ccc3[nH]ncc3c2)n1` [Example 4, 2-(1H-5-indazolylamino)-6-methyl-N-(3-pyridyl)nicotinamide], for which the results for the “Inhibitory activity on HBV-RT (%)” value in the test with HBV polymerase (0.01 μg/ml), in the test on HBV polymerase (0.1 μg/ml) and with HBV polymerase (1 μg/ml) were 50%, 64% and 92%, respectively. Further, the inhibition at 0.1 µg/mL in test [1] turned out to be 40%. For the same molecule, in test [1], the inhibition at 1 µg/mL stood at 64%.
Consider `Cc1ccc(C(=O)NCc2cccnc2)c(Nc2ccc3[nH]ncc3c2)n1` [Example 5, 2-(1H-5-indazolylamino)-6-methyl-N-(3-pyridylmethyl)nicotinamide], for which the “Inhibitory activity on HBV-RT (%)” value is 37% with HBV polymerase (0.01 μg/ml), 43% in the test with HBV polymerase (0.1 μg/ml) and 65% in the test on HBV polymerase (1 μg/ml). Also, in test [1], the inhibition at 0.1 µg/mL is 38%. Moreover, in test [1], the inhibition at 1 µg/mL amounted to 69%.
For `Cc1ccc(C(=O)NCCc2ccccn2)c(Nc2ccc3[nH]ncc3c2)n1` [Example 6, 2-(1H-5-indazolylamino)-6-methyl-N-(2-pyridylethyl)nicotinamide] the same measures were 40%, 55%, 84%, 45% and 77%.
As to `CNC(=O)c1ccc(C)nc1Nc1ccc2cn[nH]c2c1` [Example 7, 2-(1H-6-indazolylamino)-6-methyl-N-methylnicotinamide], the entries for the “Inhibitory activity on HBV-RT (%)” value in the test with HBV polymerase (0.01 μg/ml), in the test on HBV polymerase (0.1 μg/ml) and in the test with HBV polymerase (1 μg/ml) were 21%, 50% and 70%, respectively.
On to `Cc1ccc(C(=O)NC(C)C)c(Nc2ccc3cn[nH]c3c2)n1` [Example 8, 2-(1H-6-indazolylamino)-N-isopropyl-6-methylnicotinamide], for which the “Inhibitory activity on HBV-RT (%)” value in the test with HBV polymerase (0.01 μg/ml) is listed as 23%; with HBV polymerase (0.1 μg/ml) it was 54%; in the test with HBV polymerase (1 μg/ml) it was 78%. In test [1], the inhibition at 0.1 µg/mL was 28%. Also, the inhibition at 1 µg/mL in test [1] amounted to 65%.
For the molecule `Cc1ccc(C(=O)NC(C)(C)C)c(Nc2ccc3cn[nH]c3c2)n1` [Example 9, N-(t-butyl)-2-(1H-6-indazolylamino)-6-methylnicotinamide], the “Inhibitory activity on HBV-RT (%)” value with HBV polymerase (0.01 μg/ml) was found to be 20%; in the test with HBV polymerase (0.1 μg/ml), 48%; in the test on HBV polymerase (1 μg/ml) it was 65%.
For `Cc1ccc(C(=O)NCCO)c(Nc2ccc3cn[nH]c3c2)n1` [Example 10, N-(2-hydroxyethyl)-2-(1H-6-indazolylamino)-6-methylnicotinamide] the same measures were 48%, 62% and 89%.
Regarding `Cc1ccc(C(=O)NC2CC2)c(Nc2ccc3cn[nH]c3c2)n1` [Example 11, N-cyclopropyl-2-(1H-6-indazolylamino)-6-methylnicotinamide], the figures for the “Inhibitory activity on HBV-RT (%)” value in the test on HBV polymerase (0.01 μg/ml), in the test with HBV polymerase (0.1 μg/ml) and in the test on HBV polymerase (1 μg/ml) were 32%, 54% and 84%, respectively. The inhibition at 0.1 µg/mL in test [1] is 45%. Also, the inhibition at 1 µg/mL in test [1] turned out to be 82%.
`Cc1ccc(C(=O)NCCN(C)C)c(Nc2ccc3cn[nH]c3c2)n1` [Example 12, N-[2-(dimethylamino)ethyl]-2-(1H-6-indazolylamino)-6-methylnicotinamide]: the “Inhibitory activity on HBV-RT (%)” value was determined as 49% with HBV polymerase (0.01 μg/ml), 60% in the test with HBV polymerase (0.1 μg/ml) and 86% in the test on HBV polymerase (1 μg/ml).
The corresponding values for `CCN(CC)CCNC(=O)c1ccc(C)nc1Nc1ccc2cn[nH]c2c1` [Example 13, N-[2-(diethylamino)ethyl]-2-(1H-6-indazolylamino)-6-methylnicotinamide] are 15%, 45% and 54%.
Regarding `Cc1ccc(C(=O)NCCN2CCOCC2)c(Nc2ccc3cn[nH]c3c2)n1` [Example 14, 2-(1H-6-indazolylamino)-6-methyl-N-[2-(4-morpholinyl)ethyl]nicotinamide], the “Inhibitory activity on HBV-RT (%)” value in the test on HBV polymerase (0.01 μg/ml) amounted to 52%; with HBV polymerase (0.1 μg/ml) it was 68%; with HBV polymerase (1 μg/ml), 91%. Besides, the inhibition at 0.1 µg/mL in test [1] turned out to be 41%. Further, the inhibition at 1 µg/mL in test [1] amounted to 70%.
The corresponding values for `Cc1ccc(C(=O)NCCN2CCCCC2)c(Nc2ccc3cn[nH]c3c2)n1` [Example 15, 2-(1H-6-indazolylamino)-6-methyl-N-[2-(1-piperidinyl)ethyl]nicotinamide] are 12%, 57%, 87%, 43% and 78%.
`Cc1ccc(C(=O)NN2CCOCC2)c(Nc2ccc3cn[nH]c3c2)n1` [Example 16, 2-(1H-6-indazolylamino)-6-methyl-N-(4-morpholinyl)nicotinamide]: the “Inhibitory activity on HBV-RT (%)” value turned out to be 35% in the test with HBV polymerase (0.01 μg/ml), 51% in the test with HBV polymerase (0.1 μg/ml) and 78% with HBV polymerase (1 μg/ml).
The corresponding values for `Cc1ccc(C(=O)Nc2cccnc2)c(Nc2ccc3cn[nH]c3c2)n1` [Example 18, 2-(1H-6-indazolylamino)-6-methyl-N-(3-pyridyl)nicotinamide] are 18%, 40% and 69%.
For `Cc1ccc(C(=O)NCc2cccnc2)c(Nc2ccc3cn[nH]c3c2)n1` [Example 19, 2-(1H-6-indazolylamino)-6-methyl-N-(3-pyridylmethyl)nicotinamide] the same measures were 32%, 48% and 76%.
The corresponding values for `Cc1ccc(C(=O)N(N)C(=O)c2cccnc2)c(Nc2ccc3cn[nH]c3c2)n1` [Example 22, 2-(1H-6-indazolylamino)-6-methyl-N-(3-pyridylcarbonyl)-3-pyridinecarbohydrazide] are 26%, 54% and 85%.
As to `Cc1ccc(C(=O)N2CCOCC2)c(Nc2ccc3cn[nH]c3c2)n1` [Example 23, 2-(1H-6-indazolylamino)-6-methyl-3-(4-morpholinylcarbonyl)pyridine], the “Inhibitory activity on HBV-RT (%)” value with HBV polymerase (0.01 μg/ml) is 12%; with HBV polymerase (0.1 μg/ml) it was 40%; in the test on HBV polymerase (1 μg/ml), 62%.

One may read the inhibition as the change of the read-out against control, counted positive when it falls.
